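Compound exposure: 48 hours, 5 concentrations, 96-well plates. GI50 = concentration required for 50% inhibition of growth.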 Active and inactive are the calls of the source. Rule as the data show it: active = GI50 up to about 1.1 µM and inactive = higher.
What was measured:
Assay in all cases: growth of human tumour cells (NCI), 48 h
[1] = tested on: HT-29
[2] = tested on: SK-MEL-28
[3] = tested on: MCF7
[4] = tested on: OVCAR-3
[5] = tested on: SK-OV-3
[6] = tested on: U-251
[7] = tested on: OVCAR-8
[8] = tested on: HCC 2998
[9] = tested on: XF498
[10] = tested on: SF-295
[11] = tested on: RXF 393
[12] = tested on: SN12C
[13] = tested on: EKVX
[14] = tested on: K562
[15] = tested on: UACC-257
[16] = tested on: HL-60
[17] = tested on: DMS-273
[18] = tested on: OVCAR-5
[19] = tested on: NCI/ADR-RES
[20] = tested on: NCI-H460
[21] = tested on: SF-268
[22] = tested on: UO-31
[23] = tested on: OVCAR-4
[24] = tested on: HCT-15
[25] = tested on: NCI-H226
[26] = tested on: SNB-75
[27] = tested on: NCI-H23
[28] = tested on: KM-20L2
[29] = tested on: SNB-78
[30] = tested on: SW-620
[31] = tested on: NCI-H522
[32] = tested on: SF-539
[33] = tested on: A498
[34] = tested on: A549
[35] = tested on: M19-MEL
[36] = tested on: SK-MEL-2
[37] = tested on: HOP-62
[38] = tested on: COLO 205
[39] = tested on: KM12
[40] = tested on: HOP-92
[41] = tested on: DMS-114
[42] = tested on: SK-MEL-5
[43] = tested on: CCRF-CEM
[44] = tested on: CAKI-1
[45] = tested on: RPMI-8226
[46] = tested on: UACC-62
[47] = tested on: TK-10
[48] = tested on: DLD-1
[49] = tested on: LXFL 529
[50] = tested on: M14
[51] = tested on: MOLT-4
[52] = tested on: Malme-3M
[53] = tested on: HCT-116
[54] = tested on: SNB-19
[55] = tested on: IGROV-1
[56] = tested on: SR
[57] = tested on: ACHN

SMILES: Cc1cc(-c2ccc(/N=N/c3ccc4c(S(=O)(=O)O)cc(S(=O)(=O)O)c(N)c4c3O)c(C)c2)ccc1/N=N/c1ccc2c(S(=O)(=O)O)cc(S(=O)(=O)O)c(N)c2c1O [EVANS BLUE FREE ACID]
- GI50 [1]: > 100 µM (inactive)
- GI50 [2]: > 100 µM (inactive)
- GI50 [3]: > 100 µM (inactive)
- GI50 [4]: > 100 µM (inactive)
- GI50 [5]: > 100 µM (inactive)
- GI50 [6]: > 100 µM (inactive)
- GI50 [7]: > 100 µM (inactive)
- GI50 [8]: > 100 µM (inactive)
- GI50 [9]: > 77.3 µM (inactive)
- GI50 [10]: > 100 µM (inactive)
- GI50 [11]: > 95.5 µM (inactive)
- GI50 [12]: > 100 µM (inactive)
- GI50 [13]: > 100 µM (inactive)
- GI50 [14]: > 100 µM (inactive)
- GI50 [15]: > 100 µM (inactive)
- GI50 [16]: > 100 µM (inactive)
- GI50 [17]: > 100 µM (inactive)
- GI50 [18]: > 100 µM (inactive)
- GI50 [19]: > 100 µM (inactive)
- GI50 [20]: > 100 µM (inactive)
- GI50 [21]: > 100 µM (inactive)
- GI50 [22]: 62.7 µM (inactive)
- GI50 [23]: 59.2 µM (inactive)
- GI50 [24]: > 100 µM
- GI50 [25]: > 76.2 µM (inactive)
- GI50 [26]: 77.3 µM (inactive)
- GI50 [27]: > 100 µM (inactive)
- GI50 [28]: > 100 µM (inactive)
- GI50 [29]: > 85.7 µM (inactive)
- GI50 [30]: > 100 µM (inactive)
- GI50 [31]: > 100 µM (inactive)
- GI50 [32]: > 100 µM (inactive)
- GI50 [33]: > 100 µM (inactive)
- GI50 [34]: > 100 µM (inactive)
- GI50 [35]: > 100 µM (inactive)
- GI50 [36]: > 100 µM (inactive)

SMILES: N#C/C(=C1/Sc2c(nc[nH]c2=O)N1c1ccccc1)c1nc2ccccc2[nH]1
- GI50 [1]: > 100 µM (inactive)
- GI50 [2]: > 100 µM (inactive)
- GI50 [37]: > 100 µM (inactive)
- GI50 [38]: > 100 µM (inactive)
- GI50 [4]: > 100 µM (inactive)
- GI50 [5]: > 100 µM (inactive)
- GI50 [6]: > 100 µM (inactive)
- GI50 [39]: > 100 µM (inactive)
- GI50 [40]: > 100 µM (inactive)
- GI50 [7]: > 100 µM (inactive)
- GI50 [41]: > 100 µM (inactive)
- GI50 [8]: > 100 µM (inactive)
- GI50 [42]: > 100 µM (inactive)
- GI50 [9]: > 100 µM (inactive)
- GI50 [10]: > 100 µM (inactive)
- GI50 [43]: > 100 µM (inactive)
- GI50 [12]: > 100 µM (inactive)
- GI50 [13]: > 100 µM (inactive)
- GI50 [44]: > 100 µM (inactive)
- GI50 [45]: > 100 µM (inactive)
- GI50 [14]: > 100 µM (inactive)
- GI50 [46]: > 100 µM (inactive)
- GI50 [15]: > 100 µM (inactive)
- GI50 [47]: > 100 µM (inactive)
- GI50 [16]: > 100 µM (inactive)
- GI50 [17]: > 100 µM (inactive)
- GI50 [18]: > 100 µM (inactive)
- GI50 [20]: > 100 µM (inactive)
- GI50 [48]: > 100 µM (inactive)
- GI50 [21]: > 100 µM (inactive)
- GI50 [22]: > 100 µM (inactive)
- GI50 [23]: > 100 µM (inactive)
- GI50 [49]: > 100 µM (inactive)
- GI50 [24]: > 100 µM
- GI50 [50]: > 100 µM (inactive)
- GI50 [51]: > 100 µM (inactive)
- GI50 [26]: 26 µM (inactive)
- GI50 [27]: > 100 µM (inactive)
- GI50 [52]: > 100 µM (inactive)
- GI50 [28]: > 100 µM (inactive)
- GI50 [53]: > 100 µM (inactive)
- GI50 [29]: > 100 µM (inactive)
- GI50 [54]: > 100 µM (inactive)
- GI50 [30]: > 100 µM (inactive)
- GI50 [55]: > 100 µM (inactive)
- GI50 [31]: > 100 µM (inactive)
- GI50 [32]: > 100 µM (inactive)
- GI50 [33]: > 100 µM (inactive)
- GI50 [56]: > 100 µM (inactive)
- GI50 [57]: > 100 µM (inactive)
- GI50 [34]: > 100 µM (inactive)
- GI50 [35]: > 100 µM (inactive)
- GI50 [36]: > 100 µM (inactive)
